Source: ChEMBL document CHEMBL3885861, “Open TG-GATES”

Species: Rattus norvegicus
Assay: Open TG-GATES - Regimen: Daily Repeat
Assay type: toxicity, organism-based, Sprague-Dawley
Design: regimen Daily Repeat, gender Male, age 6 weeks
Details: in vivo, po, 200 mg/kg, route gavage, dose level High; for APTT / Bas / Eos / Fbg / Hb / Ht / Lym / MCH / MCHC / MCV / Mono / Neu / PT / Plat / RBC / Ret / WBC: tissue Blood; for KIDNEY_L / KIDNEY_R / KIDNEY_TOTAL: tissue Kidney; for LIVER: tissue Liver; for A/G / ALP / ALT / AST / BUN / CRE / Ca / Cl / DBIL / GLC / IP / K / LDH / Na / PL / RALB / TBIL / TC / TG / TP / gamma-GTP: tissue Plasma

Cn1c(=O)c2[nH]cnc2n(C)c1=O.O [THEOPHYLLINE]
TERMINAL_BW (72 h, time 3 day): 221.1 g | APTT (72 h, time 3 day): 22.1 s | Bas (72 h, time 3 day): 0% | Eos (72 h, time 3 day): 0.5% | Fbg (72 h, time 3 day): 438.5 mg/dL | Hb (72 h, time 3 day): 15 g/dL | Ht (72 h, time 3 day): 44.8% | Lym (72 h, time 3 day): 77.8% | MCH (72 h, time 3 day): 21.1 pg | MCHC (72 h, time 3 day): 33.5% | MCV (72 h, time 3 day): 63 fL | Mono (72 h, time 3 day): 3.8% | Neu (72 h, time 3 day): 15.8% | PT (72 h, time 3 day): 16.7 s | Plat (72 h, time 3 day): 134.2 x10_4/uL | RBC (72 h, time 3 day): 711.5 x10_4/ul | Ret (72 h, time 3 day): 6.6% | WBC (72 h, time 3 day): 107.4 x10_2/uL | KIDNEY_L (72 h, time 3 day): 0.9 g | KIDNEY_R (72 h, time 3 day): 0.9 g | KIDNEY_TOTAL (72 h, time 3 day): 1.9 g | LIVER (72 h, time 3 day): 9.5 g | A/G (72 h, time 3 day): 1.2 | ALP (72 h, time 3 day): 1278.8 IU/L | ALT (72 h, time 3 day): 42.5 IU/L | AST (72 h, time 3 day): 73.2 IU/L | BUN (72 h, time 3 day): 15.2 mg/dL | CRE (72 h, time 3 day): 0.2 mg/dL | Ca (72 h, time 3 day): 10.9 mg/dL | Cl (72 h, time 3 day): 106.8 meq/L | DBIL (72 h, time 3 day): 0 mg/dL | GLC (72 h, time 3 day): 178.8 mg/dL | IP (72 h, time 3 day): 7.3 mg/dL | K (72 h, time 3 day): 4.3 meq/L | LDH (72 h, time 3 day): 198.8 IU/L | Na (72 h, time 3 day): 141.8 meq/L | PL (72 h, time 3 day): 122.8 mg/dL | RALB (72 h, time 3 day): 3.1 g/dL | TBIL (72 h, time 3 day): 0.0075 mg/dL | TC (72 h, time 3 day): 75 mg/dL | TG (72 h, time 3 day): 37.8 mg/dL | TP (72 h, time 3 day): 5.7 g/dL | gamma-GTP (72 h, time 3 day): 1.5 IU/L | TERMINAL_BW ([…], time 7 day): 254.4 g | TERMINAL_BW ([…], time 14 day): 288.8 g | TERMINAL_BW ([…], time 28 day): 371.8 g | APTT ([…], time 7 day): 23 s | Bas ([…], time 7 day): 0% | Eos ([…], time 7 day): 0.2% | Fbg ([…], time 7 day): 354 mg/dL | Hb ([…], time 7 day): 14.6 g/dL | Ht ([…], time 7 day): 43% | Lym ([…], time 7 day): 67.4% | MCH ([…], time 7 day): 20.2 pg | MCHC ([…], time 7 day): 33.9% | MCV ([…], time 7 day): 59.7 fL | Mono ([…], time 7 day): 4.6% | Neu ([…], time 7 day): 26% | PT ([…], time 7 day): 16.7 s | Plat ([…], time 7 day): 117.7 x10_4/uL | RBC ([…], time 7 day): 720.6 x10_4/ul | Ret ([…], time 7 day): 6% | WBC ([…], time 7 day): 116.9 x10_2/uL | APTT ([…], time 14 day): 24.8 s | Bas ([…], time 14 day): 0% | Eos ([…], time 14 day): 0.2% | Fbg ([…], time 14 day): 337 mg/dL | Hb ([…], time 14 day): 15.5 g/dL | Ht ([…], time 14 day): 45.7% | Lym ([…], time 14 day): 77% | MCH ([…], time 14 day): 20.1 pg | MCHC ([…], time 14 day): 33.8% | MCV ([…], time 14 day): 59.5 fL | Mono ([…], time 14 day): 3.2% | Neu ([…], time 14 day): 18.2% | PT ([…], time 14 day): 16.1 s | Plat ([…], time 14 day): 102.3 x10_4/uL | RBC ([…], time 14 day): 767.8 x10_4/ul | Ret ([…], time 14 day): 4.7% | WBC ([…], time 14 day): 128.3 x10_2/uL | APTT ([…], time 28 day): 27.4 s | Bas ([…], time 28 day): 0% | Eos ([…], time 28 day): 1% | Fbg ([…], time 28 day): 349 mg/dL | Hb ([…], time 28 day): 16.1 g/dL | Ht ([…], time 28 day): 46.7% | Lym ([…], time 28 day): 76.5% | MCH ([…], time 28 day): 19.9 pg | MCHC ([…], time 28 day): 34.5% | MCV ([…], time 28 day): 57.7 fL | Mono ([…], time 28 day): 2.5% | Neu ([…], time 28 day): 19% | PT ([…], time 28 day): 16.6 s | Plat ([…], time 28 day): 91.7 x10_4/uL | RBC ([…], time 28 day): 810 x10_4/ul | Ret ([…], time 28 day): 3.6% | WBC ([…], time 28 day): 133.1 x10_2/uL | KIDNEY_L ([…], time 7 day): 1.1 g | KIDNEY_R ([…], time 7 day): 1.1 g | KIDNEY_TOTAL ([…], time 7 day): 2.1 g | KIDNEY_L ([…], time 14 day): 1.2 g | KIDNEY_R ([…], time 14 day): 1.3 g | KIDNEY_TOTAL ([…], time 14 day): 2.5 g | KIDNEY_L ([…], time 28 day): 1.4 g | KIDNEY_R ([…], time 28 day): 1.4 g | KIDNEY_TOTAL ([…], time 28 day): 2.8 g | LIVER ([…], time 7 day): 11.2 g | LIVER ([…], time 14 day): 11.7 g | LIVER ([…], time 28 day): 15.5 g | A/G ([…], time 7 day): 1.2 | ALP ([…], time 7 day): 1736.2 IU/L | ALT ([…], time 7 day): 58.6 IU/L | AST ([…], time 7 day): 79 IU/L | BUN ([…], time 7 day): 16.6 mg/dL | CRE ([…], time 7 day): 0.2 mg/dL | Ca ([…], time 7 day): 10.8 mg/dL | Cl ([…], time 7 day): 104.2 meq/L | DBIL ([…], time 7 day): 0 mg/dL | GLC ([…], time 7 day): 173 mg/dL | IP ([…], time 7 day): 8.2 mg/dL | K ([…], time 7 day): 4.4 meq/L | LDH ([…], time 7 day): 182.6 IU/L | Na ([…], time 7 day): 142 meq/L | PL ([…], time 7 day): 134.6 mg/dL | RALB ([…], time 7 day): 3.3 g/dL | TBIL ([…], time 7 day): 0.01 mg/dL | TC ([…], time 7 day): 74 mg/dL | TG ([…], time 7 day): 65.6 mg/dL | TP ([…], time 7 day): 5.9 g/dL | gamma-GTP ([…], time 7 day): 2.2 IU/L | A/G ([…], time 14 day): 1.2 | ALP ([…], time 14 day): 1300.2 IU/L | ALT ([…], time 14 day): 54 IU/L | AST ([…], time 14 day): 85 IU/L | BUN ([…], time 14 day): 13.8 mg/dL | CRE ([…], time 14 day): 0.2 mg/dL | Ca ([…], time 14 day): 10.4 mg/dL | Cl ([…], time 14 day): 104.8 meq/L | DBIL ([…], time 14 day): 0 mg/dL | GLC ([…], time 14 day): 175.5 mg/dL | IP ([…], time 14 day): 8.7 mg/dL | K ([…], time 14 day): 4.2 meq/L | LDH ([…], time 14 day): 137.2 IU/L | Na ([…], time 14 day): 141.8 meq/L | PL ([…], time 14 day): 128.8 mg/dL | RALB ([…], time 14 day): 3.2 g/dL | TBIL ([…], time 14 day): 0.02 mg/dL | TC ([…], time 14 day): 70.5 mg/dL | TG ([…], time 14 day): 64.2 mg/dL | TP ([…], time 14 day): 5.8 g/dL | gamma-GTP ([…], time 14 day): 2.2 IU/L | A/G ([…], time 28 day): 1.1 | ALP ([…], time 28 day): 1103 IU/L | ALT ([…], time 28 day): 54 IU/L | AST ([…], time 28 day): 92.5 IU/L | BUN ([…], time 28 day): 16.5 mg/dL | CRE ([…], time 28 day): 0.2 mg/dL | Ca ([…], time 28 day): 10.8 mg/dL | Cl ([…], time 28 day): 105 meq/L | DBIL ([…], time 28 day): 0 mg/dL | GLC ([…], time 28 day): 186.5 mg/dL | IP ([…], time 28 day): 7.5 mg/dL | K ([…], time 28 day): 4.1 meq/L | LDH ([…], time 28 day): 140.5 IU/L | Na ([…], time 28 day): 143 meq/L | PL ([…], time 28 day): 133.5 mg/dL | RALB ([…], time 28 day): 3.3 g/dL | TBIL ([…], time 28 day): 0.025 mg/dL | TC ([…], time 28 day): 66 mg/dL | TG ([…], time 28 day): 90 mg/dL | TP ([…], time 28 day): 6.5 g/dL | gamma-GTP ([…], time 28 day): 2.5 IU/L
